Experiment [1] concerns murine P388 lymphocytic leukemia (PS cell line). Description: inhibition of growth of PS tumor cells in culture (ED50). Format: cell-based. The following applies: for IC50: Mus musculus. The text has this:
(§1) The isolation and purification methods chosen can be monitored at each step by performing in vitro and/or in vivo antitumor tests as described by R. I. Geran, N. H. Greenberg, M. M. MacDonald, A. M. Schumacher and B. S. Abbot in Cancer Chemother. Rep. Part 3, Vol. 3 (2): 1-103 (1972); and by Schmidt, J. M.; Pettit, G. R. in Experimentia, 34: 659-660 (1978). Such tests include the determination of the concentration of active material rquired to inhibit the growth of tumor cells in culture, (e.g., the concentration required to inhibit growth by 50 percent or the ED50) and of the dose of active material required to prolong the life of mice bearing transplanted tumors.

In another experiment the test system is P 388 (PS) mouse tumor. In words: P 388 (PS) mouse tumor test, life extension in vivo.
Description: The dried methylene chloride extracts (derived from the shipping solution and from extraction of the chopped animals) were further separated by taking small portions and subjecting each to solvent partitioning beginning with methanol:water (9:1)/hexane (4 times). […] The aqueous mthanol layers were further diluted with water to a ratio of 8:2 and were extracted repeatedly with carbon tetrachloride (9 times). The carbon tetrachloride extracts were dried and assayed for antitumor activity.
as §1

≈ marks a conversion by molar mass, not a printed value.

In experiment [1] (PS cell line), `CCCC(=O)O[C@H]1C[C@H]2C[C@@H](O)CC(=O)O[C@@H]([C@@H](C)O)C[C@@H]3C/C(=C\C(=O)OC)[C@H](OC(C)=O)[C@@](O)(O3)C(C)(C)/C=C/[C@H]3C/C(=C\C(=O)OC)C[C@@H](C[C@](O)(O2)C1(C)C)O3` [Bryostatin 6] gave an ED50 of 3 ng/mL (≈ 3.52 nM). Also, the “in vivo life extension” value with P 388 (PS) mouse tumor (at 185 μg/kg) was 82%.
In the case of `COC(=O)C=C1CC2/C=C/C(C)(C)C3(O)OC(C/C(=C\C(=O)OC)C3OC(C)=O)C[C@H]([C@@H](C)O)OC(=O)C[C@H](O)C[C@@H]3C[C@H](OC(C)=O)C(C)(C)[C@](O)(C[C@H](C1)O2)O3` (some centres unmarked) [Bryostatin 7], in experiment [1] (P388, PS cell line), the IC50 (in general, the point on the concentration scale where inhibition reaches its midpoint) was found to be 0.026 ng/mL (≈ 0.0315 nM). In addition, the “in vivo life extension” value with P 388 (PS) mouse tumor (at 92 μg/kg) turned out to be 77%.
For the compound `COC(=O)C=C1CC2/C=C/C(C)(C)C3(O)OC(C/C(=C\C(=O)OC)C3OC(C)=O)C[C@H]([C@@H](C)O)OC(=O)C[C@H](O)C[C@@H]3C[C@H](OC(=O)CC(C)C)C(C)(C)[C@](O)(C[C@H](C1)O2)O3` (some centres unmarked) [Bryostatin 5], the IC50 in experiment [1] (P388, PS cell line) lay in the range of 0.26 to 1.3 ng/mL (≈ 0.3 to 1.5 nM). Besides, the “in vivo life extension” value with P 388 (PS) mouse tumor (at 185 μg/kg) worked out at 88%.
In experiment [1] (murine P388 lymphocytic leukemia assay (PS cell line), unit inferred), `CCCC(=O)OC1/C(=C/C(=O)OC)CC2C[C@H]([C@@H](C)O)OC(=O)C[C@H](O)C[C@@H]3C[C@H](OC(=O)CCC)C(C)(C)[C@](O)(C[C@@H]4CC(=CC(=O)OC)CC(/C=C/C(C)(C)C1(O)O2)O4)O3` (some centres unmarked) [Bryostatin 8] had a half-inhibitory concentration (IC50) of 1.3 ng/mL (≈ 1.48 nM).
Consider `CCCC(=O)OC1/C(=C/C(=O)OC)CC2C[C@H]([C@@H](C)O)OC(=O)C[C@H](O)C[C@@H]3C[C@H](OC(=O)CC(C)C)C(C)(C)[C@](O)(C[C@@H]4CC(=CC(=O)OC)CC(/C=C/C(C)(C)C1(O)O2)O4)O3` (some centres unmarked) [Bryostatin 4], for which the “increase in life extension” value in the experiment with P 388 (PS) mouse tumor (at 46 μg/kg) stood at 62%.

For the origin of these results see patent US4611066A, “Bryostatins 4 to 8” (Arizona State University, priority 1984, dated 1986).
